In patent US8461389B2, “Psycho-pharmaceuticals” (University College Dublin, National University of Ireland, …, priority 2008, dated 2013):

Key:
[1] = tested on: C57B16 mice; assay: Open-field test; format: in vivo; details: 3 and 5 mg/kg i.p. once daily for 7 days; FIG. 3
Description: The open field test is designed to measure behavioural responses such as locomotor activity, hyperactivity, and exploratory behaviors. Open field is also used as a measure of anxiety. Rats and mice tend to avoid brightly illuminated, novel, open spaces, so the open field environment acts as an anxiogenic stimulus and allows for measurement of anxiety-induced locomotor activity and exploratory behaviors. Like the elevated maze test described below, open field testing is a one trial test with little or no impact on the animal's subsequent behavior. The apparatus for the open field test was a square (100 cm by 100 cm) made of white Perspex. Each rat is placed in a corner of the field and its behavior recorded for five minutes. All activity is recorded by a video camera mounted above the open field and scored in real-time (or digitized and scored later) by the advanced motion-recognition software package Ethovision by Noldus, that detects and analyzes the movements of the rat or mouse. The total distance, average speed, rearing/elongation behavior, and time spent in various parts of the field (such as, for example, the border areas vs. the open, middle area) is measured and analysed. Testing is carried out in a temperature, noise and light controlled room.
The Experimental protocol employed in the behavioural evaluation of Captodiamine is outlined in FIG. 7. […]

[2] = tested on: C57B16 mice; assay: Water maze spatial learning; format: in vivo; details: i.p. once daily for 7 days; FIG. 6
Description: The test apparatus consists of a large circular pool (1 m diameter, 80 cm high, temperature 26° C.) with a platform (11 cm diameter) submerged 1.5 cm below the surface. Both the pool and the platform were constructed of black polyvinyl plastic, which offered no intra-maze cues. The experimental room contained several extra-maze visual cues. During training the platform was hidden in the same quadrant 30 cm away from the edge of the maze. There were five trials, each of them beginning with the rat facing the wall of the maze in one of three different locations. The time taken for the rat to find the platform within a 90 s period was recorded. Probe trials where the platform was removed from the maze and the time the animal spent in the target quadrant were also performed. […]
Finally, drugs inducing neurobehavioural profile are evaluated in the water maze spatial learning paradigm, a robust task of information acquisition and consolidation—a measure of pro-cognitive action. […]
The influence of Captodiamine on open-field behaviour (FIG. 3), novel object recognition (FIG. 8), forced swim test (FIGS. 10A and 10B) and water maze spatial learning (FIG. 6). […] Values were analysed using a two way ANOVA and Student t-test and those with a p values<0.05 were accepted as significant and where appropriate are indicated with an asterisk.

[3] = tested on: BDNF (Brain-derived neurotrophic factor); assay: BDNF levels in brain regions by ELISA after sub-chronic administration; format: in vivo, mice; details: sub-chronic 7 day treatment, FIG. 9D
Description: Neurotrophic factor concentration was determined by using an ELISA purchased from Promega Inc;
The Experimental protocol employed in the behavioural evaluation of Captodiamine is set out as follows: Three separate cohorts of C57B16 mice were employed in the behavioural evaluation of Captodiamine (see FIG. 7). Cohort 1 was used to evaluate the drug effect on prepulse inhibition, spatial learning, open-field and novel object recognition. Cohort 2 was used to evaluate drug effects on the forced swim test and the elevated X-maze. The behavioural tests were administered in sequence as per day number indicated in the bar of FIG. 7. The drug was administered by the intraperitoneal route and on the day of training the drug was administered after the behavioural analysis. Cohort 3 was used for analysis of growth factor (GF) expression (such as, for example, Brain Derived Neurotrophic Factor (BDNF and Glial Derived Neurotrophic Factor (GDNF). The brains were removed immediately after sacrifice, the relevant brain areas dissected, homogenised and stored at −80° C. until analysis. Captodiamine/UCD-0620 was administered at doses of 3 and 5 mg/kg. The compound was administered once daily, via the intraperitoneal route, for 7 days prior to testing and the animals were drug-free at time of training.
The Structure (FIG. 9A), receptor affinity (FIG. 9B), pharmacokinetics (FIG. 9C) and growth factor modulation (FIG. 9D) of Captodiamine are provided. Analysis of receptor affinities was performed by Novascreen™ and those displacing >20% of the natural ligand are indicated by the filled boxes. Blood levels of Captodiamine were determined by GC mass spectroscopy. In separate samples taken from a cannulated jugular at increasing time intervals following a single intraperitoneal injection of tha drug (5 mg/kg). Growth factor analysis was performed using tissue homogenates and ELISA assays specific for each growth factor (Promega). Values were analysed using a Student t-test and those with a p value<0.05 were accepted as significant and are indicated with an asterisk.

## CCCCSc1ccc(C(SCCN(C)C)c2ccccc2)cc1 (stereo not drawn) [Captodiamine, 2-[(4-butylsulfanylphenyl)-phenyl-methyl]sulfanyl-N,N-dimethyl-ethanamin]
[1]
  basal locomotion in the open-field paradigm: no influence on basal locomotion
  time spent in the centre of the open-field arena: significantly more time in the centre
[2]
  water maze spatial learning task performance: significant pro-cognitive action
[3]
  BDNF expression levels, hippocampus: no effect
  BDNF expression levels, hypothalamus: significantly increased
  BDNF expression levels, prefrontal cortex: no effect
